From US6406870B2, “Methods and compositions for modulating heterotypic E-cadherin interactions with T lymphocytes” (The Brigham and Women's Hospital, Inc., priority 1994, dated 2002)

How the values were obtained:
[1] = system: IEL adhesion to 16E6.A5 epithelial cells; experiment: IEL adhesion to 16E6.A5 epithelial cell monolayers; type: cell-based, human; conditions: epithelial cell monolayers pretreated with cytokine
Experimental: Monolayers of adherent cells were grown in flat bottomed 96-well Linbro tissue culture plates. 10^4 adherent cells in 100 μl complete media were added per well and allowed to grow for two to three days until they reached confluence. Just prior to the addition of IEL or transfected COS 7 cells, the adherent cell monolayers were washed with assay media. To label IEL and COS-7 cells, 25 μg of 2′,7′-bis-(2-carboxyethyl)-5 (and -6)-carboxyfluorescein (BCECF-AM, Molecular Probes, Inc., Eugene, Oreg.) was diluted in 5 μl DMSO and added to a suspension of 5×10^6/ml IEL or COS-7 cells in complete media. The cells were incubated at 37° C. for 25 minutes then washed twice in assay media (PBS containing 1 mM CaCl2, 2 mM MgCl2 and 10 mM HEPES). After washing, 50,000 labeled IEL or COS-7 cells in 100 μl of assay media were added to the adherent cell monolayers. IEL or COS-7 cells were allowed to settle onto adherent cell monolayers for 25 or 40 min. at 37° C. Unbound cells were removed by flicking media from the plate. Bound cells were detected using a Fluorescence plate reader (IDEXX Co., Portland, Me.). If antibody blocking was performed, the IEL, COS-7 cells, epithelial cell monolayers, or L-M monolayers were pre-incubated with a 1:250 dilution of ascites fluid or 10 μg/ml of purified mAb for five minutes at 37° C. prior to encounter with the second cell type. At least four replicates were performed. The % cells bound was calculated by reading the fluorescence units obtained after unbound cells were washed off, dividing this number by the input fluorescence units and multiplying by 100. […] In adhesion assays where divalent cations were varied, the IEL were washed with Ca^++ and Mg^++ free Hank's balanced salt solution (HBSS) and pre-equilibrated with HBSS containing the indicated concentrations of MgCl2, MnCl2, or CaCl2 for 10 min. at 37° C. prior to incubation with 16E6.A5 monolayers which had been washed with Ca^++ and Mg^++ free HBSS. Disruption of T84 cell intercellular tight junctions.
The 16E6.A5 cell line was derived by immortalization of the 76N normal epithelial cell line through transfection of the E6 and E7 genes of human papilloma virus (by V. Band, Tufts University, publically available). Monolayers of these adherent cells are grown in flat-bottomed 96-well Linbro tissue culture plates. […] Bound cells are detected using a Fluorescence plate reader (IDEXX Co., Portland Me.). […] The % cells bound is calculated by reading the fluorescence units obtained after unbound cells are washed off and dividing this number by the input fluorescence units obtained after adding 50,000 cells/well and multiplying by 100. Serial dilutions of labeled cells have shown that as few as 1000 cells can be detected in the linear range.

[2] = system: homotypic E-cadherin adhesion; conditions: soluble recombinant protein produced in insect cells; cited from earlier work
[3] = system: integrin expression on IEL lines; experiment: FACS analysis of integrin expression on cultured IEL; type: cell-based, human; conditions: culture of IEL lines with TGF-β1
From the text: Human intestinal tissue was obtained from fatal accident organ donors or from adult patients undergoing resection for colorectal carcinoma, from sections at least 10 cm away from macroscopically detectable lesions. IEL were isolated as described previously (Davies M. D. J. et al. (1981) Gut 22:481; Parker C. et al. (1992) Proc. Natl. Acad. Sci. USA 89:1924). once isolated, the IEL were stimulated with phytohemagglvtinin-P (PHA:Difco) and irradiated feeder cells (80% peripheral blood mononuclear cells and 20% JY lymphoblastoid cells) in Yssel's medium (Yssel H. et al. (1984) J. Immunol. Methods 72:219) containing 2 nM recombinant interleukin (IL)-2 (gift of Ajinomoto, Kawasaki, Japan), 4% (vol/vol) conditioned medium (Brenner M. et al. (1987) J. Immunol. 138:1502), 4% (vol/vol) fetal calf serum (Hyclone), and 50 AM 2-mercaptoethanol at 10% Co2. […] Two different anti-CD8 mAb (OKT8, CD8α; and T8/2T85H7, CD8β) were used to discriminate between expression of the CD8 αα homodimer and the CD8 αβ heterodimer. In agreement with previously reported data (Jarry A. et al. (1990) Eur. J. of Immunol. 20(5):1097), 10% of the CD8^+ cells expressed the homodimer. Thus, the lines were thought to be highly purified IEL preparations. Long term culture of the 032891 and 390I IEL lines was maintained by intermittent restimulation with PHA and irradiated feeder cells. In single color FACS analysis, the long term 032891 cell line was 99% CD3^+, 99% T cell receptor αβ positive, and 99% CD8 αβ positive. The 390I cell line was 99% CD3^+, 99% T cell receptor αβ positive, and 99% CD8 αβ positive and 6% CD4 positive. […]
FACS analysis was performed by suspending 2.5×10^5 cells in 100 μl of staining buffer (PBS, 1% BSA, 4% human serum, 0.02% NaN3) containing saturating concentrations of mAbs and incubating for 1 hr. at 4° C. […] Biotin-conjugated mAbs were used to stain the second molecule which was visualized by PE-conjugated streptavidin (Becton Dickinson & Co., Mountain View, Calif. Viable cells were analyzed using the FACScan or FACSort flow cytometer (Becton Dickinson & Co.).

Molecule | effect on IEL-to-epithelial cell adhesion [1] | further results
IFN-γ: interferon, cytokine | increased adhesion | –
IL-1B: interleukin, cytokine | no effect | –
Recombinant human E-cadherin: recombinant human E-cadherin containing nearly the entire extracellular domain, produced in insect cells (Herrenknecht and Kemler) | – | blocking of homophilic E-cadherin mediated cell-cell binding [2]: failed to block
TGF-β1: transforming growth factor-beta 1 | – | expression of α^Eβ7 on IEL lines [3]: dramatically up-regulated; expression of α^Lβ2 on IEL lines [3]: down regulated; expression of β1 and its associated α chains on IEL lines [3]: little effect
TNF-α | no effect | –
IL-4: interleukin, cytokine (protein, UniProt P05112 25-153, looked up) Interleukin-4: HKCDITLQEIIKTLNSLTEQKTLCTELTVTDIFAASKNTTEKETFCRAATVLRQFYSHHEKDTRCLGATAQQFHRHKQLIRFLKRLDRNLWGLAGLNSCPVKEANQSTLENFLERLKTIMREKYSKCSS | no effect | –
